Experiments:
C. albicans ATCC 48867 [1] = assay: Susceptibility test in microplate (liquid medium), MIC; format: cell-based, Candida albicans; conditions: 48 h at 37° C.
Description: (§1) Two standard American Type Culture Collection (ATCC) strains were used for the assays, i.e. those deposited under the numbers ATCC 48867 and ATCC 23866. Econazole (base) and the econazole-polycarbophil complex were prepared by using different concentrations of the active ingredient depending on the assay requirements, as well as different solvents (i.e. propylene glycol, DMSO), with or without a thickening excipient substance (i.e. hydroxypropylcellulose). The activity of each solvent was also tested, as well as the activity of the excipient and that of polycarbophil alone.
(§2) Stock solutions of econazole (base) and of the econazole-polycarbophil complex were obtained by dissolving the compounds in DMSO at a concentration of 1.5 mg/ml. Two serial 10-fold dilutions in DMSO were made starting from the stock solutions, up to a concentration of 15 μg/ml. From this concentration each compound was subsequently diluted in Yeast Nitrogen Base medium, to which 0.5% glucose and 0.05% bovine albumin had been added. The mixtures were then placed, at different concentrations, in microplate wells (90 μl volume each). 10 μl of a suspension of C. albicans obtained by diluting by {fraction (1/10+L )} a preparation having a turbidity of 2 McFarland were then inoculated in each well. […]

C. albicans ATCC 23866 = assay: as above; format: cell-based, Candida albicans; conditions: 48 h at 37° C.
Description: as §1, §2

C. albicans ATCC 48867 [2] = assay: Antifungal assay in solid medium (inhibition halo); format: cell-based, Candida albicans
Description: as §1
The antifungal activity has been evaluated in an assay in solid medium using Petri dishes containing Sabouraud medium with 2% agar. The dishes were uniformly seeded, with the aid of a sterile pad, with an aqueous suspension containing C. albicans at a density of 2 McFarland. By means of an instrument of 6 mm diameter, incisions were made on the dishes in order to obtain regular cavities in the agar thickness. Each one of the substances under test was placed in one of these cavities, in amounts ranging from 50 to 100 μl. The plates were then incubated for 24 h in a thermostat at 37° C. The antifungal activity was evaluated by measuring the diameter of the inhibition of C. albicans growth around each cavity.
The antifungal assay in solid medium turned out to be a highly sensitive and reproducible assay also for the products under test. At least five separate experiments for evaluating the inhibition halos were carried our for each one of the two different strains and for each one of the compounds examined. Similar results were obtained with each compound in all of the experiments performed.

[3] = tested on: Candida albicans, strain ATCC 48867; assay: Experimental intravaginal infection by Candida albicans in a murine model; format: in vivo, CBA/J (H-2^k) mice; conditions: for Not improved (% of mice): above 990 colonies; for Not improved (number of mice): vaginal wash 4 hours after dosing, above 990 colonies in 50 μl PBS; for Improved (% of mice) / Improved (number of mice): 100 to 990 colonies in 50 μl PBS; for Cured (number of mice): all cultures negative; for Sensibly improved (% of mice) / Sensibly improved (number of mice): less than 100 colonies in 50 μl PBS
Excerpt: In the frame of the microbiological experimentation of the products of the invention, the in vivo pharmacological activity of the econazole-polycarbophil complex has also been tested, in comparison with that of econazole (base), in the treatment of an experimental intravaginal infection by Candida albicans, reproduced in a murine model.
Vaginal candidiasis in rodents may be induced only in pseudoestrus conditions (P. L. Fidel, M. E. Lynch, J. D. Sobel, Infection and Immunity, 61 (5), 1993, 1990). For this reason, 72 hours before vaginal inoculation, the CBA/J (H-2^k) mice, described as sensible to such infection (P. L. Fidel, J. L. Cutright, J. D. Sobel, Infection and Immunity, 63 (10), 1995, 4191) were treated with 0.5 mg of estradiol valerate, dissolved in sesame oil, administered by subcutaneous route. The estrogen administration was repeated weekly until completion of the study. Blastoconoids (5×10^5) of Candida albicans, strain ATCC 48867, were inoculated in the vagina of mice previously treated with estrogens. After one week from the inoculation, the infection degree was evaluated by means of vaginal washing and subsequent count of the colony-forming units (CFU) on plates of Sabouraud agar, to which chloramphenicol and gentamicin had been added.
The infected animals were divided into three test groups, each one of which underwent a therapeutic treatment for five subsequent days (from day 1 to day 5). Each therapeutic treatment respectively consisted of: 1) econazole (base) (0.5 wt. % and 1 wt. %); 2) econazole-polycarbophil complex (0.5 wt. % and 1 wt. % calculated as econazole); 3) excipients (control group).
The infection degree was checked before starting the treatment and at the end thereof (day 6). […] The statistical evaluation of the results was made by means of the χ^2 test.

[4] = 0.5 wt. % econazole, 5 days, checked day 6

## Clc1ccc(COC(Cn2ccnc2)c2ccc(Cl)cc2Cl)cc1 (stereo not shown) [econazole (base), 1-{2-[(4-chlorophenyl)methoxy]-2-(2,4-dichlorophenyl)ethyl}-1H-imidazole]
C. albicans ATCC 48867 [1]
  Minimal inhibitory concentration: 5.6 ± 0.3 μg/ml of econazole
C. albicans ATCC 23866
  Minimal inhibitory concentration: 5.6 ± 0.4 μg/ml of econazole
C. albicans ATCC 48867 [2]; Concentration 3 × 10^−2 %, preparation with HPC
  Diameter of inhibition halo: 31.2 ± 0.84 mm
C. albicans ATCC 48867 [2]; Concentration 3 × 10^−2 %, preparation without HPC
  Diameter of inhibition halo: 31.2 ± 0.84 mm
C. albicans ATCC 48867 [2]; Concentration 3 × 10^−3 %, preparation with HPC
  Diameter of inhibition halo: 29.4 ± 0.89 mm
C. albicans ATCC 48867 [2]; Concentration 3 × 10^−3 %, preparation without HPC
  Diameter of inhibition halo: 28.6 ± 0.55 mm
C. albicans ATCC 48867 [2]; Concentration 3 × 10^−4 %, preparation with HPC
  Diameter of inhibition halo: 20.8 ± 1.30 mm
C. albicans ATCC 48867 [2]; Concentration 3 × 10^−4 %, preparation without HPC
  Diameter of inhibition halo: 20.2 ± 1.09 mm
C. albicans ATCC 48867 [2]; Concentration 3 × 10^−5 %, preparation with HPC
  Diameter of inhibition halo: 13.0 ± 1.00 mm
C. albicans ATCC 48867 [2]; Concentration 3 × 10^−5 %, preparation without HPC
  Diameter of inhibition halo: 12.4 ± 0.58 mm
[3]; [4]
  Not improved (% of mice): 11.11%
  Not improved (number of mice): 1
[3]; 0.5 wt. % econazole
  Improved (% of mice): 66.66%
  Improved (number of mice): 6
  Cured (number of mice): 0
  Sensibly improved (% of mice): 22.22%
  Sensibly improved (number of mice): 2
[3]; 1 wt. % econazole, 5 days, checked day 6
  Not improved (number of mice): 3
[3]; 1 wt. % econazole
  Improved (% of mice): 56.25%
  Improved (number of mice): 9
  Not improved (% of mice): 18.75%
  Cured (number of mice): 0
  Sensibly improved (% of mice): 25.00%
  Sensibly improved (number of mice): 4
[3]; 1 wt. % econazole, p=0.0131 between groups
  cured animals added to sensibly cured animals (% of mice): 25%

Reference: US6423307B1, “Bioadhesive complexes of polycarbophil and azole antifungal or antiprotozoal drugs” (Farmigea S.p.A., priority 1996, dated 2002)
